In the supplement of paper PMC10307832:

Compound: CO[C@H]1C[C@@H]2CC[C@@H](C)[C@@](O)(O2)C(=O)C(=O)N2CCCC[C@H]2C(=O)O[C@H]([C@H](C)C[C@@H]2CC[C@@H](OCCO)[C@H](OC)C2)CC(=O)[C@H](C)/C=C(\C)[C@@H](O)[C@@H](OC)C(=O)[C@H](C)C[C@H](C)/C=C/C=C/C=C/1C [Everolimus]
Experiment: relative viability (nuclei count vs DMSO), 5 days (fraction); higher = more cells survive
Method in brief: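 Viability is treated-well nuclei as a fraction of vehicle-well nuclei, reported as the median across plates. Before counting, lung cancer cell lines were kept overnight at 37 °C in 1536-well plates, pinned with five √10-spaced library-drug doses on vehicle-anchored plates, and left 5 days without medium change, then fixed, permeabilised and Hoechst-stained in one step, imaged at 4× and counted by MetaXpress. A plate passed only if control CV was below 25% and at least one doubling occurred.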

Cell Line | relative viability (0.01 µM) | relative viability (0.03162 µM) | relative viability (0.1 µM) | relative viability (0.3162 µM) | relative viability (1 µM)
COR-L 105 | 0.667 | 0.682 | 0.592 | 0.552 | 0.663
LK-2 | 0.844 | 0.554 | 0.546 | 0.491 | 0.487
NCI-H727 | 0.67 | 0.537 | 0.518 | 0.608 | 0.552
RERF-LC-KJ | 0.788 | 0.695 | 0.584 | 0.659 | 0.558
NCI-H2023 | 0.545 | 0.501 | 0.458 | 0.457 | 0.378
NCI-H322M | 0.688 | 0.728 | 0.733 | 0.694 | 0.722
NCI-H1666 | 0.952 | 0.858 | 0.853 | 0.886 | 0.898
SW 900 | 0.578 | 0.498 | 0.545 | 0.57 | 0.512
NCI-H2087 | 0.814 | 0.903 | 0.759 | 0.772 | 0.966
LU99A | 0.557 | 0.644 | 0.626 | 0.591 | 0.679
HCC-366 | 0.955 | 0.961 | 0.935 | 0.929 | 0.972
EKVX | 0.628 | 0.687 | 0.544 | 0.541 | 0.573
NCI-H2342 | 0.569 | 0.512 | 0.531 | 0.667 | 0.641
NCI-H1755 | 0.919 | 0.865 | 0.749 | 0.819 | 0.816
NCI-H647 | 0.644 | 0.521 | 0.539 | 0.535 | 0.65
LC-2-ad | 0.932 | 1.03 | 0.89 | 0.958 | 0.9
NCI-H1793 | 0.435 | 0.305 | 0.351 | 0.376 | 0.299
HCC-827 | 1.1 | 1.09 | 1.01 | 1.03 | 1.05
HCC-78 | 0.905 | 0.919 | 0.659 | 0.858 | 0.644
NCI-H2085 | 0.848 | 0.865 | 0.692 | 0.735 | 0.689
PC-14 | 0.808 | 0.759 | 0.679 | 0.657 | 0.734
NCI-H1648 | 0.646 | 0.778 | 0.718 | 0.596 | 0.654
A-427 | 0.803 | 0.772 | 0.693 | 0.808 | 0.799
H3255 | 0.735 | 0.664 | 0.543 | 0.528 | 0.495
HCC-44 | 1 | 0.974 | 0.985 | 0.969 | 0.957
NCI-H1734 | 0.648 | 0.692 | 0.602 | 0.615 | 0.742
NCI-H2228 | 0.706 | 0.593 | 0.51 | 0.533 | 0.582

Cell Line | relative viability (0.01 µM) | relative viability (0.03162 µM) | relative viability (0.1 µM) | relative viability (0.3162 µM) | relative viability (1 µM)
ABC-1 | 0.604 | 0.822 | 0.781 | 0.707 | 0.875
COR-L23 | 0.858 | 0.942 | 0.869 | 0.88 | 0.684
NCI-H661 | 0.812 | 0.814 | 0.786 | 0.746 | 0.667
NCI-H1993 | 0.675 | 0.61 | 0.596 | 0.685 | 0.626
NCI-H1437 | 0.875 | 0.795 | 0.767 | 0.738 | 0.621
UMC-11 | 0.376 | 0.415 | 0.374 | 0.44 | 0.468
201T | 0.9 | 0.893 | 0.842 | 0.855 | 0.878
NCI-H358 | 0.483 | 0.487 | 0.514 | 0.479 | 0.525
ChaGo-K-1 | 0.976 | 0.95 | 0.865 | 0.899 | 0.974
NCI-H1650 | 0.761 | 0.879 | 0.828 | 0.85 | 0.868
LOU-NH91 | 0.823 | 0.799 | 0.798 | 0.789 | 0.773
HOP-62 | 0.901 | 0.856 | 0.767 | 0.777 | 0.794
IA-LM | 0.601 | 0.396 | 0.378 | 0.374 | 0.406
NCI-H1915 | 0.955 | 0.863 | 0.82 | 0.875 | 0.866
NCI-H3122 | 0.987 | 0.993 | 0.831 | 0.691 | 0.852
NCI-H1651 | 0.749 | 0.71 | 0.691 | 0.663 | 0.645
EBC-1 | 0.415 | 0.385 | 0.41 | 0.416 | 0.408
NCI-H1299 | 0.969 | 0.98 | 1.01 | 0.974 | 1.04
NCI-H838 | 0.603 | 0.561 | 0.468 | 0.516 | 0.51
NCI-H596 | 0.699 | 0.628 | 0.54 | 0.697 | 0.588
SK-LU-1 | 0.652 | 0.583 | 0.593 | 0.591 | 0.639
NCI-H441 | 0.898 | 0.961 | 0.907 | 0.984 | 0.952
NCI-H650 | 0.7 |  | 0.783 | 0.566 | 0.583
SK-MES-1 | 0.755 | 0.75 | 0.74 | 0.663 | 0.622
NCI-H1792 | 0.478 | 0.336 | 0.363 | 0.349 | 0.379
Calu-6 | 0.956 | 0.922 | 0.892 | 0.88 | 0.988
NCI-H1355 | 0.666 | 0.537 | 0.552 | 0.628 | 0.48

Cell Line | relative viability (0.01 µM) | relative viability (0.03162 µM) | relative viability (0.1 µM) | relative viability (0.3162 µM) | relative viability (1 µM)
SW 1573 | 0.585 | 0.555 | 0.546 | 0.544 | 0.519
A549 | 0.602 | 0.412 | 0.371 | 0.423 | 0.399
NCI-H2347 | 0.928 | 0.95 | 0.795 | 0.887 | 0.75
LCLC-97TM1 | 0.771 | 0.82 | 0.709 | 0.892 | 0.775
EMC-BAC-2 | 0.689 | 0.606 | 0.55 | 0.473 | 0.565
NCI-H1975 | 0.73 | 0.798 | 0.793 | 0.734 | 0.677
BEN | 0.567 | 0.358 | 0.334 | 0.46 | 0.387
NCI-H522 | 0.722 | 0.655 | 0.601 | 0.731 | 0.813
NCI-H1703 | 0.455 | 0.373 | 0.456 | 0.529 | 0.63
NCI-H23 | 0.639 | 0.516 | 0.468 | 0.583 | 0.55
NCI-H520 | 0.436 | 0.413 | 0.401 | 0.326 | 0.371
CAL-12T | 0.643 | 0.7 | 0.476 | 0.542 | 0.604
EPLC-272H | 0.691 | 0.596 | 0.568 | 0.513 | 0.626
LCLC-103H | 0.977 | 0.969 | 0.834 | 0.922 | 0.871
NCI-H2405 | 0.791 | 0.774 | 0.731 | 0.767 | 0.74
HCC-15 | 0.964 | 0.994 | 0.922 | 0.98 | 0.958
PC-3 [JPC-3] | 1.01 | 1.04 | 0.991 | 0.891 | 0.936
NCI-H1944 | 0.636 | 0.687 | 0.575 | 0.789 | 0.626
HARA | 0.858 | 0.999 | 0.784 | 0.87 | 0.78
NCI-H1563 | 0.767 | 0.761 | 0.715 | 0.728 | 0.676
NCI-H2126 | 0.681 | 0.615 | 0.617 | 0.606 | 0.594
LXF-289 | 1.09 | 1.07 | 1 | 1.03 | 1.05
NCI-H460 | 0.951 | 1.03 | 0.957 | 0.921 | 0.939
NCI-H1395 | 0.765 | 0.627 | 0.683 | 0.647 | 0.727
NCI-H2170 | 0.459 | 0.45 | 0.428 | 0.459 | 0.464
NCI-H2009 | 0.769 | 0.867 | 0.705 | 0.791 | 0.841
